The results in this text go back to patent US20250376481A1, “POLYCYCLIC CARBAMOYL PYRIDONE DERIVATIVE, PREPARATION METHOD THEREFOR AND PHARMACEUTICAL COMPOSITION THEREOF” (NANJING AIDEA PHARMACEUTICAL TECHNOLOGY CO., LTD., priority 2021, published 2025).

A short description of data set [1]: Cytotoxicity test (cell viability, CellTier Glo). The data set is classed as cell-based. To be noted: human. Here is the method:
(§1) • Virus: The HIV-1 pseudovirus used in this experiment was a replication deficient virus, which is constructed by WuXi AppTec. • HEK 293T cell line was purchased from ATCC, and Item No. is CRL-11268. Cells were cultured in DMEM medium with 10% fetal bovine serum and 1% double antibody. • Reagents
(§2) On the first day, HEK 293T cells were inoculated into a 96 well test plate at the density of 55000 cells per well and […] per well, and incubated overnight in a 5% CO2 and 37° C. incubator.
(§3) On the second day, the tested compounds (compounds provided in the example of the present invention) and the control compounds were diluted 4-fold with cell culture medium for a total of 8 concentration points, and 50 μL diluted compounds were added to each well, and each well was performed duplicate.
(§4) Cell Control (cells, no compound treatment or virus infection) and virus control (cells infected with virus, no compound treatment) were set up. The final initial test concentration of the tested compounds and control compounds was 1000 nM (Table 1), and the amount of virus infection was 100 TCID50 per well. The total volume of cell culture medium was 200 μL per well, and the final concentration of DMSO in the culture medium was 0.5%.
(§5) The cells were cultured in a 5% CO2 and 37° C. incubator for additional 3 days.
On the fifth day, in the cytotoxicity test plates, 100 μL cell supernatant were sucked from each well, 100 μL cell viability assay reagent CellTier Gloin was added in dark. Cell viability in each well was detected by BioTek enzyme-linked immunosorbent assay reader, and the data was used for sample cytotoxicity analysis.
(§6) Dose-response curve was drawn through GraphPad Prism software. The calculation equations for antiviral activity (% Inhibition) and cell viability (% cell viability) were as follow:
(§7) The values of EC50 and CC50 were analyzed by GraphPad Prism (version 5) software, and nonlinear fitting analysis was used for inhibitory activity and cell viability of the compounds, and the fitting method was “log (inhibitor) vs. response—Variable slope”.
(§8) 3. The HIV-1 pseudovirus experiment was applied to determinate the in vitro antiviral activity and cytotoxicity of the tested compound on HEK 293T cells, and the experimental results were shown in the table below.

The nature of the next data set: in vivo. On the set-up: species or system Crab-eating macaques (Macaca fascicularis). To be noted: male, cynomolgus monkey, po. Here is the method: Crab-eating macaques were used as test animal, the LC-MS/MS was used to determinate the drug concentration at different times in the plasma of crab-eating macaques, who had been administered with compound 1 via gavage (PO). The pharmacokinetic behaviors of compounds of present disclosure in crab-eating macaques were studied and their pharmacokinetic characteristics were evaluated.
Crab-eating macaques (Macaca fascicularis), common grade, male, approximately 2.5-4 years old, 2-5 kg weight, 3 in each group.
Compound 1 and a solid substrate (hydroxypropyl methylcellulose acetate succinate) are dissolved in an organic solvent, and the solvent was removed by heating evaporation, or removed by a spray dryer to obtain compound 1 loaded on the solid substrate.
Compound 1 loaded on the solid substrate, which was obtained according to the above steps, was slowly added to a suitable container with approximately 80% final volume of vehicle while stirring. Stirred until it is visually uniform, and if necessary, the formulation shall be subjected to ultrasonic treatment. Vehicle was added to give the desired concentration. The obtained formulation shall be consecutively stirred until a visually uniform formulation was obtained, and if necessary, the formulation shall be subjected to ultrasonic treatment. The administration concentration with 20 mg/mL API concentration was prepared, and the preparation method for above vehicle was: approximately 30% total volume of purified water was added to an suitable container, and heated up to approximately 80° C.-90° C., the required volume of Tween 80 was added slowly to the container, while stirred until visually uniform. Purified water was added to the final volume. Stirred until a visually uniform solution was obtained.
Crab-eating macaques were fast overnight and given free access to water. […] Feeding was resumed 2 hours after administration.
For crab-eating macaques administered by gavage, 20 μL blood were collected from the veins in hind limb before administration and 0.25, 0.5, 1, 2, 4, 8, 24, 48, 72 and 96 hours after administration, respectively, and placed in EDTA-K2 anticoagulant blood collection tubes, and then the blood would be placed on ice until centrifuged to obtain plasma samples. The plasma samples were centrifuged at 4° C. (3500 rpm, 10 min), and after separation, the plasma samples were transferred to EP tubes and stored at −80° C. for detection.
The level of tested compounds in the plasma of crab eating macaques, who had been orally administrated with different concentrations of drug were determinated: 10 μL macaque blood at each time point after administration was taken, 100 μL methanol containing an internal standard (100 ng/mL) was added, vortex mixed for 1 minute, centrifuged at 4° C. (12000 rmp, 5 minutes), and 1 μL supernatant was taken from the plasma samples for LC-MS/MS analysis.

Another data set has as its target HIV-1 integrase (Human immunodeficiency virus type 1 group M subtype B, UniProt P04585). The data set can be described thus: Integrase activity test (HIV-1 Integrase Assay Kit EZ-1700).
A further data set relates to HIV-1 pseudovirus. The data set can be described thus: HIV-1 pseudovirus infection test (antiviral activity, luciferase). Type of data set: cell-based. To be noted: Human immunodeficiency virus 1, HEK-293T, 72 h. The procedure:
as §1, §2, §3
Subsequently, the HIV-1 pseudovirus was diluted to 100 TCID50/50 μL with cell culture medium, and 50 μL diluted virus was added to each well.
as §4, §5
On the fifth day, in the antiviral activity test plates, 100 μL cell supernatant was sucked away from each well, 100 μL 2X luciferase reporter gene assay reagent Britellite plus was added in dark. The luciferase activity in each well of the test plates was detected by Envision. The data was used for sample antiviral activity analysis.
as §6, §7, §8

SMILES strings stand for the structures. Bounds are passed on as bounds.

Method for HIV-1 integrase: A non-radioactive assay method, an integrase assay kit, was used to measure integrase activity quantitatively.
Each component was prepared according to the instructions of the kit; preparation of test sample, 5 mM DMSO solution was prepared for backup, working solution was prepared according to the initial final concentration determined at the time of method establishment, with a 4-fold gradient dilution and 10 concentrations.
• (1) The working solution of sample was prepared according to the initial concentration determinated during the methodology establishment process; • (2) Reagents were prepared according to the methods provided in the kit; • (3) DS DNA coating—blocking—addition of integrase solution—addition of sample—addition of TS DNA—addition of HRP antibody-addition of TMB peroxidase substrate—TMB termination reaction-detection of light absorption value at 450 nm.
The software Graphpad Prism 8.0 was applied and the calculation equation of Log (inhibitor) vs. response variable slope was used to fit the IC50 curve.

For the compound `C[C@H]1N2C(=O)c3c(O)c(=O)c(C(=O)NCc4ccc(F)cc4F)cn3C[C@@H]2OCC12CC2` [Compound 1], in data set [1], the CC50 – broadly, the concentration that lowers cell viability or growth by half – at 3 days was greater than 1000 nM. In addition, in the data set “in vivo” (30 mg/kg), the AUC(0-inf) (in general, total exposure, with the tail of the curve extrapolated) amounted to 23100 ± 3840 ng·h/mL; the AUC(0-t) – broadly, the area under the concentration-time curve up to a stated or last time point – worked out at 22900 ± 3810 ng·h/mL; the Cmax (usually the highest concentration seen after dosing) was 1800 ± 534 ng/mL; the MRT (in general, a mean duration of stay, worked out from the concentration-time curve) was 14.1 ± 2.68 h. Moreover, in the data set “in vivo” (30 mg/kg), the Tmax (commonly the time from dosing to the highest level) amounted to 4 h and the half-life (in general, the time needed for the level to fall by half in the phase considered) was 15.7 ± 5.49 h. In the data set “in vivo” (100 mg/kg), the AUC(0-inf) worked out at 164000 ng·h/mL, the AUC(0-t) came out at 140000 ± 44200 ng·h/mL, the Cmax is 4040 ± 871 ng/mL and the MRT was 26.9 h. For the same compound, in the data set “in vivo” (100 mg/kg), the Tmax worked out at 18.7 ± 25.4 h and the half-life is 19.8 ± 4.78 h. At HIV-1 integrase, half-maximal inhibition (IC50) was put at 9.19 nM. Further, the midpoint of the response in the data set with HIV-1 pseudovirus, the EC50, lay at 1.08 nM.
